Columns and labels:
[1] = tested on: C32 melanoma cells; assay: MTT cell viability assay, C32; settings: Homo sapiens, read-out: IC50, cytotoxic activity, MTT test;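 also: MTT added for 2 h, cells lysed in DMSO, absorbance read at 570 nm, compound vehicle kept at or below 0.1% DMSO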
[2] = tested on: A375 melanoma cells; assay: MTT cell viability assay, A375; settings: Homo sapiens;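 also: Read-out is formazan absorbance at 570 nm after 2 h with MTT, with compounds in at most 0.1% v/v DMSO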
Procedure: The MTT colorimetric assay was performed as a preliminary evaluation of the cytotoxicity of the selected flavonoids according to the method described and validated by Strawa et al. [21]. Briefly, melanoma cells and fibroblasts were seeded in 96-well microplates at a density of 1 × 10^4 cells per well. Fibroblasts were used as a control cell line in order to assess the selectivity of the compounds. […] Subsequently, the cells were washed with PBS, incubated with MTT solution for 2 h, and lysed with dimethyl sulfoxide (DMSO) supplemented with 1% (v/v) Sorensen’s glycine buffer. The absorbance was measured using a microplate reader (EPOCH 2, BioTek, Winooski, VT, USA) at a wavelength of 570 nm. The compounds were used at a final DMSO concentration of no more than 0.1% (v/v) in each well. The results were generated from at least three independent experiments. […] The IC50 values were calculated with GraphPad Prism 9 software (GraphPad Software, San Diego, CA, USA).

[3] = tested on: C32 melanoma cells; assay: Neutral red uptake (NRU) assay, C32; settings: Homo sapiens
[4] = tested on: A375 melanoma cells; assay: Neutral red uptake (NRU) assay, A375; settings: Homo sapiens, read-out: IC50, cytotoxic activity, NRU assay
[5] = MTT cell viability assay, normal cells; settings: human;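 also: fibroblasts served as non-cancer comparison line for selectivity versus melanoma cells, MTT reduction read as absorbance at 570 nm after 2 h dye exposure, compounds in ≤0.1% DMSO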
[6] = Neutral red uptake (NRU) assay, normal cells; settings: human
[7] = A-375, 24 h, read-out: IC50, cytotoxic activity, MTT test, A375, 24 h
[8] = A-375, 48 h, read-out: IC50, cytotoxic activity, MTT test, A375, 48 h
[9] = A-375, 72 h, read-out: IC50, cytotoxic activity, MTT test, A375, 72 h
[10] = C32, 24 h, read-out: IC50, cytotoxic activity, NRU assay, C32, 24 h
[11] = C32, 48 h, read-out: IC50, cytotoxic activity, NRU assay, C32, 48 h
[12] = C32, 72 h, read-out: IC50, cytotoxic activity, NRU assay, C32, 72 h
[13] = human skin fibroblasts (CCD25Sk)

| Structure (SMILES) | IC50 ([1]; C32, 24 h) [µM] | IC50 ([1]; C32, 48 h) [µM] | IC50 ([1]; C32, 72 h) [µM] | IC50 [2, 7] [µM] | IC50 [2, 8] [µM] | IC50 [2, 9] [µM] | IC50 [3, 10] [µM] | IC50 [3, 11] [µM] | IC50 [3, 12] [µM] | IC50 ([4]; A-375, 24 h) [µM] | IC50 ([4]; A-375, 48 h) [µM] | IC50 ([4]; A-375, 72 h) [µM] | IC50 at 24 h [5, 13] [µM] | IC50 at 48 h [5, 13] [µM] | IC50 at 72 h [5, 13] [µM] | IC50 at 24 h [6, 13] [µM] | IC50 at 48 h [6, 13] [µM] | IC50 at 72 h [6, 13] [µM] | also measured |
| --- | --- | --- | --- | --- | --- | --- | --- | --- | --- | --- | --- | --- | --- | --- | --- | --- | --- | --- | --- |
| CC1OC(OCC2OC(Oc3c(-c4ccc(O)c(O)c4)oc4cc(OC5OC(CO)C(O)C(O)C5O)cc(O)c4c3=O)C(O)C(O)C2O)C(O)C(O)C1O (stereo not drawn) [Compound 29, quercetin 3-O-rutinoside-7-O-glucoside] | > 200 | > 200 | > 200 | > 200 | > 200 | > 200 | > 200 | > 200 | > 200 | > 200 | > 200 | > 200 | > 200 | > 200 | > 200 | > 200 | > 200 | > 200 |  |
| COc1cc(-c2cc(=O)c3c(O)cc(O)cc3o2)cc(OC)c1O [Compound 31, tricin] | > 200 | 100 to 200 | 100 to 200 |  |  |  |  |  |  | > 200 | > 200 | > 200 |  |  |  |  |  |  | IC50 ([2]; A-375, 24 h, read-out: IC50, cytotoxic activity, MTT test): > 200 µM; IC50 ([2]; A-375, 48 h, read-out: IC50, cytotoxic activity, MTT test): 100 to 200 µM; IC50 ([2]; A-375, 72 h, read-out: IC50, cytotoxic activity, MTT test): 100 to 200 µM; IC50 ([3]; C32, 24 h, read-out: IC50, cytotoxic activity, NRU assay): > 200 µM; IC50 ([3]; C32, 48 h, read-out: IC50, cytotoxic activity, NRU assay): > 200 µM; IC50 ([3]; C32, 72 h, read-out: IC50, cytotoxic activity, NRU assay): > 200 µM; IC50 at 24 h [5]: 100 to 200 µM; IC50 at 48 h [5]: 80.3 ± 6.6 µM; IC50 at 72 h [5]: 56.4 ± 4.7 µM; IC50 at 24 h [6]: > 200 µM; IC50 at 48 h [6]: > 200 µM; IC50 at 72 h [6]: > 200 µM |
| O=c1c(O)c(-c2cc(O)c(O)c(O)c2)oc2cc(O)ccc12 [Compound 32, robinetin] | > 200 | > 200 | > 200 | > 200 | > 200 | 100 to 200 | > 200 | > 200 | > 200 | > 200 | > 200 | > 200 | > 200 | > 200 | > 200 | > 200 | > 200 | > 200 |  |
| COc1ccc(C2CC(=O)c3c(O)cc(OC4OC(COC5OC(C)C(O)C(O)C5O)C(O)C(O)C4O)cc3O2)cc1O (stereo not drawn) [Compound 34, hesperetin 7-O-rutinoside] | > 200 | > 200 | > 200 | > 200 | > 200 | > 200 | > 200 | > 200 | > 200 | > 200 | > 200 | > 200 | > 200 | > 200 | > 200 | > 200 | > 200 | > 200 |  |
| COc1ccc(C2CC(=O)c3c(O)cc(OC4OC(CO)C(O)C(O)C4OC4OC(C)C(O)C(O)C4O)cc3O2)cc1O (stereo not drawn) [Compound 35, hesperetin 7-O-neohesperidoside] | > 200 | > 200 | > 200 | > 200 | > 200 | > 200 | > 200 | > 200 | > 200 | > 200 | > 200 | > 200 | > 200 | > 200 | > 200 | > 200 | > 200 | > 200 |  |
| O=c1c(-c2ccc(O)cc2)coc2cc(O)ccc12 [Compound 36, daidzein] | > 200 | > 200 | > 200 | > 200 | > 200 | > 200 | > 200 | > 200 | > 200 | > 200 | > 200 | > 200 | > 200 | > 200 | > 200 | > 200 | > 200 | > 200 |  |

Source: paper PMC10854695, “Using Flavonoid Substitution Status to Predict Anticancer Effects in Human Melanoma Cancers: An In Vitro Study” (Cancers, 2024)
